Values quoted from earlier work, collected in publication PMC7731283, “Synthesis and Biological Evaluation of Halogenated E-Stilbenols as Promising Antiaging Agents” (Molecules, 2020).

Design: method as in PMID 29315886, PMID 15779070
Details: compared with RSV; cited from earlier work

COc1cc(/C=C/c2ccc(O)cc2)cc(OC)c1 [pterostilbene]
metabolic stability: more metabolically stable
